Common to all, as to test: AE Enzyme Inhibition Assay
Experiment [1] concerns the target T1, Clan CD, family C13, asparaginyl endopeptidase-like cysteine peptidase (Trichomonas vaginalis (strain ATCC PRA-98 / G3), UniProt A2DYT2).
T1 sequence (A2DYT2 whole entry): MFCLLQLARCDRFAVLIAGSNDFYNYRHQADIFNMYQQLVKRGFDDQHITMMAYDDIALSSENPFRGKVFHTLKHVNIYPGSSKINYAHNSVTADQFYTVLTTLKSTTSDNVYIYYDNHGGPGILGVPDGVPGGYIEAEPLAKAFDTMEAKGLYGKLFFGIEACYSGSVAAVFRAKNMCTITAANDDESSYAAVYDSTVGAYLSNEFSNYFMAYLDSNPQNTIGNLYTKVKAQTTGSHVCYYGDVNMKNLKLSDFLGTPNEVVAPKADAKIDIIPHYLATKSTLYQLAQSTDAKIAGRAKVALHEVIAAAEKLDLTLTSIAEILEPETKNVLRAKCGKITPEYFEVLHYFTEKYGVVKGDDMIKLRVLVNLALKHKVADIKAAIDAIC
As for the experimental part: (§1) AE activity in the induction medium was measured with the substrate Cbz-Ala-Ala-Asn-AMC. In a black 96-well microtiter plate, aza-peptidyl inhibitors were added to the reaction buffer containing the activated enzyme, and allowed to incubate at room temperature for 20 min. Then, substrate Cbz- Ala-Ala-Asn-AMC was added and the reaction allowed proceeding for 20 min. Plotting the relative fluorescence units (RFU)/min against the inhibitor concentration (uM) permitted calculation of the IC50 value.

Experiment [2] has as its target T2, Legumain (Schistosoma mansoni, UniProt Q9NFY9).
T2 sequence (Q9NFY9 whole entry): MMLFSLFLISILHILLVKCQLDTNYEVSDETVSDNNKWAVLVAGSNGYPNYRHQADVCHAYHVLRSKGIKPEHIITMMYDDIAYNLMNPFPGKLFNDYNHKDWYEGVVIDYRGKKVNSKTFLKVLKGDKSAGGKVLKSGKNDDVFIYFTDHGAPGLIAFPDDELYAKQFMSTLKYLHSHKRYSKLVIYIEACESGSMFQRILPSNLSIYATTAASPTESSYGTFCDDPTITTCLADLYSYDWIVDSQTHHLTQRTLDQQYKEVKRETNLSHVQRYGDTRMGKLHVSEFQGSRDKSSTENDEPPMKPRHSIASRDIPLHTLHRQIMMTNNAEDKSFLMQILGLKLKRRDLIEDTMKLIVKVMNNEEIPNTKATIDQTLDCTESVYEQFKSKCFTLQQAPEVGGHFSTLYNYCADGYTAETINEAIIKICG
As for the experimental part:
as §1

Experiment [3] has as its target T3, Legumain (Ixodes ricinus, UniProt Q6PRC7).
T3 sequence (Q6PRC7 whole entry): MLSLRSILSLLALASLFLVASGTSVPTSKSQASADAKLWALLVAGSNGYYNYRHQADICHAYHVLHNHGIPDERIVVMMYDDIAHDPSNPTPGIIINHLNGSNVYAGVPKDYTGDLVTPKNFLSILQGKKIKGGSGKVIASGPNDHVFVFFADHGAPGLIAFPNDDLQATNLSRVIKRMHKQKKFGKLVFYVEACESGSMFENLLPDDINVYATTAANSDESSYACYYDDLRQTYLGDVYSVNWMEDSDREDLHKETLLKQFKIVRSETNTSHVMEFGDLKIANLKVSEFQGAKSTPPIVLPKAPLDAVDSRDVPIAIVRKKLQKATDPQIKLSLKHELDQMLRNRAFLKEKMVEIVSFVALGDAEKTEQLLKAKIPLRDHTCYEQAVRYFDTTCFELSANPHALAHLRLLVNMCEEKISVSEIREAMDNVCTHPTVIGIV
The following applies: 25 °C. How it is done: as §1

The text below walks through data of BindingDB's records for doi:10.1021/jm701311r (Georgia Institute of Technology, 2008).

The IC50 is the point on the concentration scale where inhibition reaches its midpoint. Low readings indicate higher potency, high ones lower potency.

Regarding `C[C@H](NC(=O)OCc1ccccc1)C(=O)N[C@@H](C)C(=O)NN(CC(N)=O)C(=O)C=CC(=O)N(C)Cc1cccc2ccccc12` [benzyl N-[(1S)-1-{[(2S)-1-[(2E)-3-[N-(carbamoylmethyl)hydrazido]-N-methyl-N-(naphthalen-1-ylmethyl)prop-2-enamide]-1-oxopropan-2-yl]carbamoyl}ethyl]carbamate], the half-inhibitory concentration (IC50) was less than 1 nM in experiment [1] (25 °C); 35 nM against Legumain [2] (pH 6.8, 22 °C); 5.5 nM against Legumain [3].

As to `C[C@H](NC(=O)OCc1ccccc1)C(=O)N[C@@H](C)C(=O)NN(CC(N)=O)C(=O)C=CC(=O)N(Cc1ccccc1)Cc1ccccc1` [benzyl N-[(1S)-1-{[(2S)-1-[(2E)-N,N-dibenzyl-3-[N-(carbamoylmethyl)hydrazido]prop-2-enamide]-1-oxopropan-2-yl]carbamoyl}ethyl]carbamate], the IC50 turned out to be 10 nM in experiment [1] (25 °C); 45 nM against Legumain [2] (pH 6.8, 22 °C); 450 nM at Legumain [3].

As to `C[C@H](NC(=O)OCc1ccccc1)C(=O)N[C@@H](C)C(=O)NN(CC(N)=O)C(=O)C=CC(=O)N(Cc1ccccc1)c1ccccc1` [benzyl N-[(1S)-1-{[(2S)-1-[(2E)-N-benzyl-3-[N-(carbamoylmethyl)hydrazido]-N-phenylprop-2-enamide]-1-oxopropan-2-yl]carbamoyl}ethyl]carbamate], the half-maximal inhibitory concentration (IC50) was less than 1 nM in experiment [1] (25 °C); 70 nM against Legumain [2] (pH 6.8, 22 °C); less than 1 nM against Legumain [3].

On to `C[C@H](NC(=O)OCc1ccccc1)C(=O)N[C@@H](C)C(=O)NN(CC(N)=O)C(=O)C=CC(=O)N(C)Cc1ccccc1` [benzyl N-[(1S)-1-{[(2S)-1-[(2E)-N-benzyl-3-[N-(carbamoylmethyl)hydrazido]-N-methylprop-2-enamide]-1-oxopropan-2-yl]carbamoyl}ethyl]carbamate], for which the results for the IC50 (in experiment [1] (25 °C); against Legumain [3]) were 0.55 nM and less than 1 nM, respectively.

Regarding `C[C@H](NC(=O)OCc1ccccc1)C(=O)N[C@@H](C)C(=O)NN(CC(N)=O)C(=O)C=CC(=O)OCc1ccccc1` [benzyl (2E)-3-{N'-[(2S)-2-[(2S)-2-{[(benzyloxy)carbonyl]amino}propanamido]propanoyl]-N-(carbamoylmethyl)hydrazinecarbonyl}prop-2-enoate], the half-maximal inhibitory concentration (IC50) is 5 nM in experiment [1] (pH 6.8, 22 °C) and less than 1 nM against Legumain [3].

Take `C[C@H](NC(=O)OCc1ccccc1)C(=O)N[C@@H](C)C(=O)NN(CC(N)=O)C(=O)C=Cc1cccnc1` [benzyl N-[(1S)-1-{[(2S)-1-[(2E)-N-(carbamoylmethyl)-3-(pyridin-3-yl)prop-2-enehydrazido]-1-oxopropan-2-yl]carbamoyl}ethyl]carbamate]: the IC50 is 8000 nM in experiment [1] (25 °C); greater than 2000 nM on Legumain [2] (pH 6.8, 22 °C); 15000 nM at Legumain [3].

Take `C[C@H](NC(=O)OCc1ccccc1)C(=O)N[C@@H](C)C(=O)NN(CC(N)=O)C(=O)C=CC(=O)N(C)C(Cc1ccccc1)C(=O)N(C)CCc1ccccc1` (stereo partly drawn) [benzyl N-[(1S)-1-{[(2S)-1-[(2E)-3-[N-(carbamoylmethyl)hydrazido]-N-methyl-N-{1-[methyl(2-phenylethyl)carbamoyl]-2-phenylethyl}prop-2-enamide]-1-oxopropan-2-yl]carbamoyl}ethyl]carbamate]: the results for the IC50 (in experiment [1] (25 °C); at Legumain [2] (25 °C); at Legumain [3]) were 80 nM, 750 nM and 300 nM, respectively.

Turning to `C[C@H](NC(=O)OCc1ccccc1)C(=O)N[C@@H](C)C(=O)NN(CC(N)=O)C(=O)C=CC(=O)N(Cc1ccco1)Cc1ccco1` [benzyl N-[(1S)-1-{[(1S)-1-{N'-[(2E)-3-[bis(furan-2-ylmethyl)carbamoyl]prop-2-enoyl]-N'-(carbamoylmethyl)hydrazinecarbonyl}ethyl]carbamoyl}ethyl]carbamate], the concentration for half-maximal inhibition (IC50) in experiment [1] (25 °C) was 5000 nM; against Legumain [2] (25 °C), 900 nM; against Legumain [3], 15000 nM.

As to `C[C@H](NC(=O)OCc1ccccc1)C(=O)N[C@@H](C)C(=O)NN(CC(N)=O)C(=O)C=CC(=O)c1ccccc1` [benzyl N-[(1S)-1-{[(2S)-1-[(2E)-N-(carbamoylmethyl)-4-oxo-4-phenylbut-2-enehydrazido]-1-oxopropan-2-yl]carbamoyl}ethyl]carbamate], the results for the concentration for half-maximal inhibition (IC50) (in experiment [1] (25 °C); against Legumain [3]) were 10000 nM and greater than 20000 nM, respectively.

Regarding `CCN(CC)C(=O)C=CC(=O)N(CC(N)=O)NC(=O)[C@H](C)NC(=O)[C@H](C)NC(=O)OCc1ccccc1` [benzyl N-[(1S)-1-{[(1S)-1-[N'-(carbamoylmethyl)-N'-[(2E)-3-(diethylcarbamoyl)prop-2-enoyl]hydrazinecarbonyl]ethyl]carbamoyl}ethyl]carbamate], the half-maximal inhibitory concentration (IC50) stood at 2000 nM in experiment [1] (pH 6.8, 22 °C) and 2700 nM on Legumain [3].

Turning to `CCOC(=O)C=CC(=O)N(CC(N)=O)NC(=O)[C@H](C)NC(=O)[C@H](C)NC(=O)OCc1ccccc1` [ethyl (2E)-4-[(2S)-2-[(2S)-2-{[(benzyloxy)carbonyl]amino}propanamido]-N'-(carbamoylmethyl)propanehydrazido]-4-oxobut-2-enoate], the IC50 in experiment [1] (pH 6.8, 22 °C) is 4.5 nM; at Legumain [3], 4.5 nM.

As for `C[C@H](NC(=O)OCc1ccccc1)C(=O)N[C@@H](C)C(=O)NN(CC(N)=O)C(=O)C=CC(=O)NCc1ccccc1` [benzyl N-[(1S)-1-{[(2S)-1-[(2E)-N-benzyl-3-[N-(carbamoylmethyl)hydrazido]prop-2-enamide]-1-oxopropan-2-yl]carbamoyl}ethyl]carbamate], the IC50 amounted to 10 nM in experiment [1] (pH 6.8, 22 °C); 1000 nM on Legumain [2] (pH 6.8, 22 °C); 200 nM on Legumain [3].

Take `C[C@H](NC(=O)OCc1ccccc1)C(=O)N[C@@H](C)C(=O)NN(CC(N)=O)C(=O)C=CC(=O)N1CCCCC1` [benzyl N-[(1S)-1-{[(2S)-1-[(2E)-N-(carbamoylmethyl)-4-oxo-4-(piperidin-1-yl)but-2-enehydrazido]-1-oxopropan-2-yl]carbamoyl}ethyl]carbamate]: the concentration for half-maximal inhibition (IC50) in experiment [1] (pH 6.8, 22 °C) is 500 nM; against Legumain [2] (pH 6.8, 22 °C) it was 1000 nM.

As for `C[C@H](NC(=O)OCc1ccccc1)C(=O)N[C@@H](C)C(=O)NN(CC(N)=O)C(=O)C=CC(=O)NCCc1ccccc1` [benzyl N-[(1S)-1-{[(2S)-1-[(2E)-3-[N-(carbamoylmethyl)hydrazido]-N-(2-phenylethyl)prop-2-enamide]-1-oxopropan-2-yl]carbamoyl}ethyl]carbamate], the 50% inhibitory concentration (IC50) in experiment [1] (pH 6.8, 22 °C) came out at 10 nM; on Legumain [2] (pH 6.8, 22 °C), 600 nM; against Legumain [3], 350 nM.

Turning to `C[C@H](NC(=O)OCc1ccccc1)C(=O)N[C@@H](C)C(=O)NN(CC(N)=O)C(=O)C=Cc1ccco1` [benzyl N-[(1S)-1-{[(1S)-1-[N'-(carbamoylmethyl)-N'-[(2E)-3-(furan-2-yl)prop-2-enoyl]hydrazinecarbonyl]ethyl]carbamoyl}ethyl]carbamate], the IC50 at Legumain [2] (pH 6.8, 22 °C) is greater than 2000 nM; against Legumain [3], 7500 nM.

As for `C[C@H](NC(=O)OCc1ccccc1)C(=O)N[C@@H](C)C(=O)NN(CC(N)=O)C(=O)C=CC(=O)N(C)CCc1ccccc1` [benzyl N-[(1S)-1-{[(2S)-1-[(2E)-3-[N-(carbamoylmethyl)hydrazido]-N-methyl-N-(2-phenylethyl)prop-2-enamide]-1-oxopropan-2-yl]carbamoyl}ethyl]carbamate], the 50% inhibitory concentration (IC50) worked out at 50 nM in experiment [1] (25 °C) and 600 nM at Legumain [2] (pH 6.8, 22 °C).

In the case of `CC=CC=CC(=O)N(CC(N)=O)NC(=O)[C@H](C)NC(=O)[C@H](C)NC(=O)OCc1ccccc1` [benzyl N-[(1S)-1-{[(1S)-1-[N'-(carbamoylmethyl)-N'-(2E,4E)-hexa-2,4-dienoylhydrazinecarbonyl]ethyl]carbamoyl}ethyl]carbamate], the IC50 in experiment [1] (25 °C) was found to be 8000 nM.
